Source: BigSolDB 2.1

COC(=O)Nc1nc2ccc(Sc3ccccc3)cc2[nH]1
solubility (mole fraction)
Conditions | 283.15 K | 288.15 K | 293.15 K | 298.15 K | 303.15 K | 308.15 K | 313.15 K | 318.15 K | 323.15 K | 328.15 K
in DMF | 0.0397 | 0.0559 | 0.0731 | 0.0997 | 0.134 | 0.175 | 0.227 | 0.291 | 0.374 | 0.47
in ethanol | 0.000165 | 0.000219 | 0.000291 | 0.000378 | 0.000478 | 0.000598 | 0.000734 | 0.000918 | 0.00112 | 0.00137
in ethylene glycol | 0.000127 | 0.000171 | 0.000232 | 0.000305 | 0.0004 | 0.000513 | 0.000648 | 0.000812 | 0.00101 | 0.00126
in water | 3.69e-06 | 4.51e-06 | 5.71e-06 | 7.25e-06 | 9.03e-06 | 1.12e-05 | 1.38e-05 | 1.7e-05 | 2.07e-05 | 2.51e-05
